{"source": "patent US20040127405A1", "about": "“Methods for treating lung infections and lung tumors and for treating and preventing lung metastases” (priority 2000, published 2004)", "key": {"lungs of rats": {"test_system": "lungs of rats", "assay": "Leukocyte counts in bronchoalveolar lavage (BAL) after intratracheal instillation in rats", "format": "in vivo, rat", "experimental": "In the majority of experiments, the biologically active, chemically synthesized 2-R-MALP-2 stereoisomer, corresponding to the natural compound, was used for intracheal administration. […] Both compounds were synthesized and purified as described in Example 1, and kept as 1 mg/ml stock solutions in a 33 vol. % 2-propanol, 67 vol. % water mixture. Stock solutions were diluted with pyrogen-free 0.9 wt. % sodium chloride solutions (Braun, Melsungen, Germany) shortly before application. Solvent controls consisted of corresponding mixtures without MALP-2.\nIntratracheal administration of the compounds was performed under short ether anesthesia. During this process, rats were suspended in a hanging position by a rubber band fixed to the rats' upper jaw teeth. After intubation of the trachea via the oral cavity, a total volume of 500 μl was administered. Before administration, the correct position of the tube was checked by blowing air into the lung.\nThe animals' lungs were lavaged 10 times with 5 ml of cold 0.9 wt. % NaCl solutions via a tracheal cannula. The lavage fluid was pooled, and an average of >90% of the volume was recovered. The bronchoalveolar (BAL) cells were processed for blood leukocytes as described herein.\nThe total cell numbers in the lung compartments (BAL, marginal pool, and interstitium) and in the blood were determined in a Neubauer counting chamber. Differential cell counts were assessed on cytospins. The slides were fixed in acetone for 10 min and washed with Tris-buffered saline containing 0.1 wt. % Tween 20. Cells were stained with a monoclonal antibody cocktail against lymphocytes (R73 for T cells, O×12 for B cells, and 3.2.3 for natural killer cells [all cells available from Serotec, Oxford, United Kingdom]). At least 400 cells were differentiated on each slide. In addition, neutrophils and macrophages were morphologically identified by May-Grünwald and/or Giemsa staining.\nFor flow cytometry, cells were transferred into microtiter plates (10^6 cells/well) and washed twice in PBS containing 1% BSA and 0.1% NaN3. The staining was performed with the appropriate primary antibodies described below. After the cells were washed twice, the secondary antibody was incubated for 30 min at 4° C. The cells were analyzed by using a FACScan flow cytometer (Becton Dickinson, Mountain View, Calif.), focusing on the lymphocyte cluster. CD8^+ T cells were identified as R73^+ O×8^+; CD4^+ T cells were identified as R73^+ O×8^−; memory CD4^+ T cells were identified as O×22^− W3/25^high; naive T cells were identified as O×22^+ W3/25^high; and monocytes were identified as O×22^− W3/25^low. Dendritic cells were identified as low-autofluorescence cells, non-T and non-B lymphocytes, and double positive for O×6 and O×62 (Lambrecht et al., 1999. Am. J. Respir. Cell. Mol. Biol. 20:1165-1174). All primary antibodies were monoclonal mouse anti-rat (Serotec). Unconjugated antibodies were detected by using phycoerythrin-conjugated secondary antibody (KPE; Dianova, Hamburg, Germany) and biotinylated primary antibodies with Red 670-streptavidin (Gibco, Gaithersburg, Md.). Isotype-matched antibodies served as a control.\nTo investigate whether the lipopeptide MALP-2 would be able to exert effects in the lungs, 2.5 μg of the natural stereoisomer 2R-MALP-2 was instilled into the lungs of anesthetized rats. […] Taken together, only the natural 2R stereoisomer of MALP-2 specifically affected the cell counts and distribution of subsets in the BAL.\nWith respect to FIG. 2, the data are means±the standard error of the mean (SEM; n=six per group).\nWith respect to FIG. 3, rats were sacrificed at the indicated time points after instillation of 2.5 μg of 2R-MAPL-2, and leukocytes in the bronchoalveolar lavage (BAL) were determined as described. The data are means±the SEM (n=5 per group).\nWith respect to FIG. 4, data are means±the SEM (n=8 per group). […]"}, "[1]": {"test_system": "lymphatic tissue in the bronchial mucosa", "assay": "Lymphatic tissue in the bronchial mucosa after repeated inhalation in rats", "format": "in vivo, rat", "settings": "inhalation by mask, 30 μg doses on six occasions at one-week intervals", "protocol": "They were maintained under specific-pathogen-free conditions until administration of compounds in accordance with the invention.\nWith the aid of a mask, rats were made to inhale 30 μg doses of MALP-2 on six occasions at one-week intervals."}, "[2]": {"settings": "intraperitoneal injection of a few μg; cited from earlier work"}, "MADB106 tumor cells": {"test_system": "MADB106 tumor cells", "assay": "Lung metastasis after intravenous MADB106 tumor cell inoculation in F344 rats", "settings": "intratracheal"}, "[3]": {"settings": "2.5 μg intratracheal, three days, P<0.01, FIG. 2"}, "[4]": {"settings": "three days after application, FIG. 4"}, "[5]": {"settings": "3 μg instilled into the trachea"}}, "note": "Read-outs that look alike come from different tables or passages of the source. Ends that are not written are not given here. * marks the point of attachment. S‑(2,3-bisacyloxypropyl) = S-(2,3-bisacyloxypropyl) group on the cysteine sulfur (lipopeptide), acyl preferably palmitoyl; X1 = S‑(2,3-bispalmitoyloxy-(2R)-propyl)Cys, CCCCCCCCCCCCCCCC(=O)OC[C@H](CSC[C@H](N)C(=O)*)OC(=O)CCCCCCCCCCCCCCC", "data": [{"substance": "S-[2,3-bispalmitoyloxy-(2R)-propyl]cysteinyl-GNNDESNISFKEK (X1-GNNDESNISFKEK) [2R-MALP-2]", "values": [{"measurement": "time of maximal lymphocyte accumulation in the BAL", "setting": "lungs of rats; 2.5 μg intratracheal", "result": 72, "unit": "h"}, {"measurement": "lymphocyte numbers in the BAL", "setting": "lungs of rats; 2.5 μg intratracheal, 24 h (0 h: [0.04±0.01]×10^6), mean±SEM", "result": "0.6±0.1 ×10^6"}, {"measurement": "lymphocyte numbers in the BAL", "setting": "lungs of rats; 2.5 μg intratracheal, 48 h, mean±SEM", "result": "0.9±0.1 ×10^6"}, {"measurement": "lymphocyte numbers in the BAL (maximal accumulation)", "setting": "lungs of rats; 2.5 μg intratracheal, 72 h after instillation, mean±SEM", "result": "1.2±0.1 ×10^6"}, {"measurement": "all investigated cell types in the BAL", "setting": "lungs of rats; 2.5 μg intratracheal, after 10 days", "result": "returned to control levels"}, {"measurement": "increase of total cell number in the BAL", "setting": "lungs of rats; 2.5 μg intratracheal, six hours after treatment, FIG. 3", "result": "about 10 -fold"}, {"measurement": "total cell number in the BAL", "setting": "lungs of rats; 2.5 μg intratracheal, three days after application, vs vehicle control, FIG. 2", "result": "clearly increased"}, {"measurement": "alveolar macrophages (AM) in the BAL", "setting": "lungs of rats; [3]", "result": "significant increase"}, {"measurement": "lymphocytes in the BAL", "setting": "lungs of rats; [3]", "result": "significant increase"}, {"measurement": "neutrophils in the BAL", "setting": "lungs of rats; [3]", "result": "significant increase"}, {"measurement": "time of maximal cell count in the BAL", "setting": "lungs of rats; 2.5 μg intratracheal, FIG. 3", "result": 24, "unit": "h"}, {"measurement": "increase in B cells and monocytes in the BAL", "setting": "lungs of rats; [4]", "result": "lower, but still significant"}, {"measurement": "increase in T lymphocytes, NK cells and dendritic cells in the BAL", "setting": "lungs of rats; [4]", "result": "highest relative increase"}, {"measurement": "increase of leukocyte subpopulations in the BAL (flow cytometry)", "setting": "lungs of rats; three days after application, P<0.01 vs control vehicle, FIG. 4", "result": "significant"}]}, {"substance": "MALP-2: macrophage-activating lipopeptide MALP-2 (an S-(2,3-bisacyloxypropyl)-cysteine peptide) isolated from Mycoplasma fermentans; stereochemistry not stated where tested (C(S‑(2,3-bisacyloxypropyl))GNNDESNISFKEK; not fully specified; also: acyl groups not given here, alternative: 2,3-diacylglyceryl-serinyl)", "values": [{"measurement": "adverse effect on the animals", "setting": "[5]", "result": "not detectable"}, {"measurement": "food consumption, bodyweight, activity and behavior", "setting": "[5]", "result": "not noteworthy"}, {"measurement": "food consumption, bodyweight, activity and behavior", "setting": "inhalation, 30 μg doses on six occasions at one-week intervals", "result": "clinically not noteworthy"}, {"measurement": "lymphatic tissue in the bronchial mucosa", "setting": "[1]", "result": "increase in the lymphatic tissue"}, {"measurement": "leukocyte infiltration", "setting": "[2]", "result": "brought about leukocyte infiltration"}, {"measurement": "effects on lung colonization of tumor cells", "setting": "MADB106 tumor cells; one day after tumor cell injection, FIG. 5B", "result": "no effects"}, {"measurement": "reduction of lung metastasis compared with sham-injected animals", "setting": "MADB106 tumor cells; simultaneously with tumor cell inoculation, counted 3 wk after inoculation, P=0.0006, FIG. 5A", "result": 44, "unit": "%"}, {"measurement": "effects on lung colonization of tumor cells", "setting": "MADB106 tumor cells; three days after tumor cell injection, FIG. 5C", "result": "no effects"}, {"measurement": "number of leukocytes in the respiratory tracts and the alveolar space (BAL)", "setting": "lungs of rats; 3 μg instilled into the trachea, after a few hours, lasts for a few days, FIG. 1", "result": "increase in the number of leukocytes"}]}]}
